Source: patent publication US7968721B2, “Large-scale synthesis of selective androgen receptor modulators” (University of Tennessee Research Foundation, priority 2003, dated 2011)

Legend:
androgen receptor = system: androgen receptor
Excerpt: Assays to determine whether the compounds of the present invention are AR agonists or antagonists are well known to a person skilled in the art. For example, AR agonistic activity can be determined by monitoring the ability of the SARM compounds to maintain and/or stimulate the growth of AR containing tissue such as prostate and seminal vesicles, as measured by weight. AR antagonistic activity can be determined by monitoring the ability of the SARM compounds to inhibit the growth of AR containing tissue.

spermatogenesis = conditions: weekly intramuscular injections, men receiving therapy; cited from earlier work

SMILES | action at the androgen receptor in vivo (androgen receptor) | anabolic and androgenic effects in vivo (androgen receptor) | men with azoospermia or severe oligospermia (less than 3 million sperm per ml) and infertility (spermatogenesis)
CC(=O)Nc1ccc(OC[C@](C)(O)C(=O)Nc2ccc([N+](=O)[O-])c(C(F)(F)F)c2)cc1 [Compound (1), 3-[4-(acetylamino)phenoxy]-2-Hydroxy-2-methyl-N-[3trifluoromethyl-4-nitro-phenyl)-proprionamide] | partial agonist | strong anabolic and weakly androgenic effects | –
CCCCCCC(=O)O[C@H]1CC[C@H]2[C@@H]3CCC4=CC(=O)CC[C@]4(C)[C@H]3CC[C@]12C [testosterone enanthate] | – | – | 98%
